Tested on: VSV-G pseudotyped, replication defective HIV vector (HIV IIIB) in CIP4 cells
Assay: microbe, parasite or virus in culture
Assay type: cell-based
Settings: Human immunodeficiency virus 1, CIP4, 48 h, read-out: IC50 in the PHIV assay

**Q.** `[2H]C([2H])([2H])c1cc(/C=C/C#N)cc(C([2H])([2H])[2H])c1Nc1ccnc(Nc2ccc(C#N)cc2)n1` [Compound D, (E)-4-((4-((4-(2-Cyanovinyl)-2,6-dimethylphenyl)amino)pyrimidin-2-yl)amino)benzonitrile-d6] was tested. Which IC50 did it give?
**A.** 0.3 nM
